Patent US11725011B2, “Bicyclic urea kinase inhibitors and uses thereof” (The Broad Institute, Inc., priority 2016, dated 2023)

Assays:
Assay in all cases: KINOMEscan
Assay type in all cases: binding
Conditions in all cases: 1 uM
DCAMKL1 = DCAMKL1 (Homo sapiens (Human), UniProt O15075)
CDK4-cyclinD3 = CDK4-cyclinD3 (Homo sapiens (Human), UniProt P11802)
ITK = ITK (Homo sapiens (Human), UniProt Q08881)
BTK = BTK (Homo sapiens (Human), UniProt Q06187)
PCTK3 = PCTK3 (Homo sapiens (Human), UniProt Q07002)
STK16 = STK16 (Homo sapiens (Human), UniProt O75716)
Sequence of STK16 (O75716 whole entry): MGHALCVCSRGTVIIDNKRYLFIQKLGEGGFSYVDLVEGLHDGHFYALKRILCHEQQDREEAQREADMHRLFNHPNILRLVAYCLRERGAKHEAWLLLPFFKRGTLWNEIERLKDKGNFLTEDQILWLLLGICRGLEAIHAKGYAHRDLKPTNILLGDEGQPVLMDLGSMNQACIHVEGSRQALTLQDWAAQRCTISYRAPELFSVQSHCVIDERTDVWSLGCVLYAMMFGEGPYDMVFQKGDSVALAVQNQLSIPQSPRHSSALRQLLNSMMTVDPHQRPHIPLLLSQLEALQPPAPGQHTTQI

PCTK2 = PCTK2 (Homo sapiens (Human), UniProt Q00537)
Sequence of PCTK2 (Q00537 whole entry): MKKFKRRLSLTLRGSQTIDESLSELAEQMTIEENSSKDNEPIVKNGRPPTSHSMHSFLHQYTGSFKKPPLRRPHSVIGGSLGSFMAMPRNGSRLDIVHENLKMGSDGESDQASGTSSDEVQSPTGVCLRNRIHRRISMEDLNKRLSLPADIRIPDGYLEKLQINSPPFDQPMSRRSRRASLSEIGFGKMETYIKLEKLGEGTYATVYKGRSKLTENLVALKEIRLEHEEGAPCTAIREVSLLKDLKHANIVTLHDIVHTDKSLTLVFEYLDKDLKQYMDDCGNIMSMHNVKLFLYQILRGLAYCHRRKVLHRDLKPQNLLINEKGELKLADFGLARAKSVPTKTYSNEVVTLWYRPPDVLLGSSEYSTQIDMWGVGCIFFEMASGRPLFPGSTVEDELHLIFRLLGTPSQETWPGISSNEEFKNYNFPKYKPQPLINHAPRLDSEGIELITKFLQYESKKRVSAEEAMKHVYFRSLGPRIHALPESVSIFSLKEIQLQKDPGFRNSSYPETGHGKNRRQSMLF

PAK2 = PAK2 (Homo sapiens (Human), UniProt Q13177)
ERBB2 = ERBB2 (Homo sapiens (Human), UniProt P04626)
OSR1 = OSR1 (Homo sapiens (Human), UniProt O95747)
PKAC-alpha = PKAC-alpha (Homo sapiens (Human), UniProt P17612)
MYLK2 = MYLK2 (Homo sapiens (Human), UniProt Q9H1R3)
NEK11 = NEK11 (Homo sapiens (Human), UniProt Q8NG66)
KIT (V559D, V654A) = KIT (V559D, V654A) (Homo sapiens (Human), UniProt P10721, V559D/V654A)
BRSK2 = BRSK2 (Homo sapiens (Human), UniProt Q8IWQ3)
TNK1 = TNK1 (Homo sapiens (Human), UniProt Q13470)
Sequence of TNK1 (Q13470 whole entry): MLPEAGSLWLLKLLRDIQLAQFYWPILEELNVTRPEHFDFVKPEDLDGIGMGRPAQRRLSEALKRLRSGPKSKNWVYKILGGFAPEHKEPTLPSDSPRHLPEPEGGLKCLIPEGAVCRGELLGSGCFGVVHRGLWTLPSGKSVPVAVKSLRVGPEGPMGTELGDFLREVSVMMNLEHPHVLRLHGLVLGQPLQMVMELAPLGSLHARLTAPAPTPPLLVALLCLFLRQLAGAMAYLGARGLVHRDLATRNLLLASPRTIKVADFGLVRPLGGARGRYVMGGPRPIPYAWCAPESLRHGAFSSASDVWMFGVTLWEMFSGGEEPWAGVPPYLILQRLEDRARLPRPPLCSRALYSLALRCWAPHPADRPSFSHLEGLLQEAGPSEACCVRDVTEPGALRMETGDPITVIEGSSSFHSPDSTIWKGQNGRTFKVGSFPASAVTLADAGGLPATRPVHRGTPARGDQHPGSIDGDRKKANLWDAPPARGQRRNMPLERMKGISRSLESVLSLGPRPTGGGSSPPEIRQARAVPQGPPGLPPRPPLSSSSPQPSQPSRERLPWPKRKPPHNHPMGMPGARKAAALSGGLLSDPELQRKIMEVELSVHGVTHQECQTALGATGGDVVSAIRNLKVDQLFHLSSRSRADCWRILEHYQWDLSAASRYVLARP

MAP3K2 = MAP3K2 (Homo sapiens (Human), UniProt Q9Y2U5)
DAPK2 = DAPK2 (Homo sapiens (Human), UniProt Q9UIK4)
EGFR (S752-I759del) = EGFR (S752-I759del) (Homo sapiens (Human), UniProt P00533, DEL752-759)
PIP5K2B = PIP5K2B (Homo sapiens (Human), UniProt P78356)
ERK8 = ERK8 (Homo sapiens (Human), UniProt Q8TD08)
WEE1 = WEE1 (Homo sapiens (Human), UniProt P30291)
Sequence of WEE1 (P30291 whole entry): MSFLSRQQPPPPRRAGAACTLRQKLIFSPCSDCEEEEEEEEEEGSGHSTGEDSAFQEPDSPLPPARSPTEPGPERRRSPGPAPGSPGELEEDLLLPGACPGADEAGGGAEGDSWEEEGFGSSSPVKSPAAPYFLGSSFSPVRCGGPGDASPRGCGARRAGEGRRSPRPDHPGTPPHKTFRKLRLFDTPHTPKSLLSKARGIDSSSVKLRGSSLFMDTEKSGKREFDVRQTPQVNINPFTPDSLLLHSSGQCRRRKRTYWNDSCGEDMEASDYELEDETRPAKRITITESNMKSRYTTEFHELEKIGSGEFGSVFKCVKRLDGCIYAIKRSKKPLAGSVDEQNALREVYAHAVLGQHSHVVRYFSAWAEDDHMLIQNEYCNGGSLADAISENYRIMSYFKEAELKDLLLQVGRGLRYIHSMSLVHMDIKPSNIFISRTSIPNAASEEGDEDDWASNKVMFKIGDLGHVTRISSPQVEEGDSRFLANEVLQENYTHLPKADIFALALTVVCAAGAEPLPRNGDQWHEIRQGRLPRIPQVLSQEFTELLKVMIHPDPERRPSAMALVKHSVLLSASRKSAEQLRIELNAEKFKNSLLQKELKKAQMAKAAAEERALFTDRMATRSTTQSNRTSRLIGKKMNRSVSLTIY

MEK1 = MEK1 (Homo sapiens (Human), UniProt Q02750)
[1] = target: ABL1 (H396P)-phosphorylated (Homo sapiens (Human), UniProt P00519, H396P)
[2] = target: EGFR (L747-T751del, Sins) (Homo sapiens (Human), UniProt P00533, DEL747-751/INS746S)
PKAC-beta = PKAC-beta (Homo sapiens (Human), UniProt P22694)
EGFR (L858R) = EGFR (L858R) (Homo sapiens (Human), UniProt P00533, L858R)
CAMK2G = CAMK2G (Homo sapiens (Human), UniProt Q13555)
MEK4 = MEK4 (Homo sapiens (Human), UniProt P45985)
Sequence of MEK4 (P45985 whole entry): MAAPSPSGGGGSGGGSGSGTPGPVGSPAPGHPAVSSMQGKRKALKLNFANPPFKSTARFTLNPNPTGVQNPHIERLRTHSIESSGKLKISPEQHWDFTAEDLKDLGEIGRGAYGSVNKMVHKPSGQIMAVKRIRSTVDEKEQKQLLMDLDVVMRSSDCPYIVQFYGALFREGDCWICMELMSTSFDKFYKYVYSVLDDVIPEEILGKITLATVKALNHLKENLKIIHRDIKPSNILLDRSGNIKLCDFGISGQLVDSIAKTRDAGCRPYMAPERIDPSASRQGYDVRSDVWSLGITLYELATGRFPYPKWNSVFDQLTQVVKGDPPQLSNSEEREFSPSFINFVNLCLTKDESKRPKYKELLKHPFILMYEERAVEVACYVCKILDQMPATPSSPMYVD

EPHA3 = EPHA3 (Homo sapiens (Human), UniProt P29320)
CSNK1G3 = CSNK1G3 (Homo sapiens (Human), UniProt Q9Y6M4)
EPHA2 = EPHA2 (Homo sapiens (Human), UniProt P29317)
DAPK3 = DAPK3 (Homo sapiens (Human), UniProt O43293)
Sequence of DAPK3 (O43293 whole entry): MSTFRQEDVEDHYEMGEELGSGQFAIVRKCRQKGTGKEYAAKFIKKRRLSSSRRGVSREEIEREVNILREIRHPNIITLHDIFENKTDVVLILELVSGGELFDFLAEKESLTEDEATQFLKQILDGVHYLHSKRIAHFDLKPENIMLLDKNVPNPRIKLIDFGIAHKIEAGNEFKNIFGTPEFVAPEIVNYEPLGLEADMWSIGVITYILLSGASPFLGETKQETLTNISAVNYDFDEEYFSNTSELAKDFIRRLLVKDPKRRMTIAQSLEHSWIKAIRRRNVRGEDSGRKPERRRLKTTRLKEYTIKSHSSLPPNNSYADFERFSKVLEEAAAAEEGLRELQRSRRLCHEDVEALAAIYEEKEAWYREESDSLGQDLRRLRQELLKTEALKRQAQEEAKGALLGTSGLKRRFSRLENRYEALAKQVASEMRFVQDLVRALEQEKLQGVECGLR

BUB1 = BUB1 (Homo sapiens (Human), UniProt O43683)
Sequence of BUB1 (O43683 whole entry): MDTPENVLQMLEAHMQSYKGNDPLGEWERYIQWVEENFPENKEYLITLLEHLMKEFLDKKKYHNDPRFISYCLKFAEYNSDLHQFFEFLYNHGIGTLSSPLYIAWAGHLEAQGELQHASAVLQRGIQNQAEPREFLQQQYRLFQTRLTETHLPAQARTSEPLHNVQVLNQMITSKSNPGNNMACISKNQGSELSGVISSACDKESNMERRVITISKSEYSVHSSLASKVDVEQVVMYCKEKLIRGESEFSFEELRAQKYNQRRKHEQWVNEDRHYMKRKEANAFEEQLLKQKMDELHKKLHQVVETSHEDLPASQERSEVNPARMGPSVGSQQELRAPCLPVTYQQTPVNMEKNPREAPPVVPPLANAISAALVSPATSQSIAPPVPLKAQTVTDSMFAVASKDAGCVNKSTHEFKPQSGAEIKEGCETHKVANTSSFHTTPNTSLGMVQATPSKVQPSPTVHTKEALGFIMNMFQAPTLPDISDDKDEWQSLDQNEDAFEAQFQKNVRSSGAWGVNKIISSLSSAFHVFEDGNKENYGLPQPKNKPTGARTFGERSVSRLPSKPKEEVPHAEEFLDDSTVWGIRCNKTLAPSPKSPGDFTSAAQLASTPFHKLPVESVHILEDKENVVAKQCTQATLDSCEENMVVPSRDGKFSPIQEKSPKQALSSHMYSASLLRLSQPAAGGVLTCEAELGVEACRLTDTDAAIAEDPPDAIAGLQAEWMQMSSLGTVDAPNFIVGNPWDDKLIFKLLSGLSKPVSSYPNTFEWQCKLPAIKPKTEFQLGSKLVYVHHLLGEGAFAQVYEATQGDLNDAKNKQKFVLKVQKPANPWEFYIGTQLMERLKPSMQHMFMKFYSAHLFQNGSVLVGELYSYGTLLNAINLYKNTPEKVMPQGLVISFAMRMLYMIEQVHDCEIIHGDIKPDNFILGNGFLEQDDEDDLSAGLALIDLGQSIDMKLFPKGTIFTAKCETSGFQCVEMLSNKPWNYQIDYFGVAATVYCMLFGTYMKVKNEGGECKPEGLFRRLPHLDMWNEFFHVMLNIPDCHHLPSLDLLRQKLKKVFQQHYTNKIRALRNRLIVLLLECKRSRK

KIT (D816H) = KIT (D816H) (Homo sapiens (Human), UniProt P10721, D816H)
Sequence of KIT (D816H) (P10721 26-976 D816H): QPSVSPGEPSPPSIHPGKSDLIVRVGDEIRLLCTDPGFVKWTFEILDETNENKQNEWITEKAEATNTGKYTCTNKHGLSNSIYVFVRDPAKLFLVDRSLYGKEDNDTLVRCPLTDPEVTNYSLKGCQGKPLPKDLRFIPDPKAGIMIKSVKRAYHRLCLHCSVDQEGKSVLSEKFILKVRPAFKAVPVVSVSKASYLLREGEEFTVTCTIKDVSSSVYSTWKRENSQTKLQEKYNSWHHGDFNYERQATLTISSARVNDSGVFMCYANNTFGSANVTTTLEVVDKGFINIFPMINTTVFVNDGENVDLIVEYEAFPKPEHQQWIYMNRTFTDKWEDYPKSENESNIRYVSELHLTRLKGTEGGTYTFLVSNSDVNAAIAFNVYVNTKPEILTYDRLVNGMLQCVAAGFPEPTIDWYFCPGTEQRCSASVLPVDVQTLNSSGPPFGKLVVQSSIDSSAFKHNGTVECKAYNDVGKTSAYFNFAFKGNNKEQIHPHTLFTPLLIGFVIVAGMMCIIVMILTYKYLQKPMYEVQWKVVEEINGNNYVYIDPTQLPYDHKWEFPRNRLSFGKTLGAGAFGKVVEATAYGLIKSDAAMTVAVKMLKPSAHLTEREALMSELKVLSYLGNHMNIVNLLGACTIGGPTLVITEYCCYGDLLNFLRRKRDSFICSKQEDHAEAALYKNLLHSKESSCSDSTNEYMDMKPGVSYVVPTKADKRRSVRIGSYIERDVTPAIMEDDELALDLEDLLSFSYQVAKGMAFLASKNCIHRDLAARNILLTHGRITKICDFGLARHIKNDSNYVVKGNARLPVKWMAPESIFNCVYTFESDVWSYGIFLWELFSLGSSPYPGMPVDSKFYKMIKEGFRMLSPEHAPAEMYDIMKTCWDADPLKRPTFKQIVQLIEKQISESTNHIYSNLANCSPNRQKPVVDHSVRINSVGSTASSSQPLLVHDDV

YES = YES (Homo sapiens (Human), UniProt P07947)
RET (V804M) = RET (V804M) (Homo sapiens (Human), UniProt P07949, V804M)
AAK1 = AAK1 (Homo sapiens (Human), UniProt Q2M2I8)
AURKB = AURKB (Homo sapiens (Human), UniProt Q96GD4)
MYLK = MYLK (Homo sapiens (Human), UniProt Q15746)

## COc1ccc(N2C(=O)N(c3c(C)cccc3C)Cc3cnc(Nc4ccc(N5CCN(C)CC5)cc4)nc32)c(OC)c1 [HG-11-136-01]
DCAMKL1
  KINOMEscan DCAMKL1: 51
CDK4-cyclinD3
  KINOMEscan CDK4-cyclinD3: 26
ITK
  KINOMEscan ITK: 66
BTK
  KINOMEscan BTK: 0.05
PCTK3
  KINOMEscan PCTK3: 100
STK16
  KINOMEscan STK16: 5.6
PCTK2
  KINOMEscan PCTK2: 91
PAK2
  KINOMEscan PAK2: 61
ERBB2
  KINOMEscan ERBB2: 0
OSR1
  KINOMEscan OSR1: 49
PKAC-alpha
  KINOMEscan PKAC-alpha: 85
MYLK2
  KINOMEscan MYLK2: 81
NEK11
  KINOMEscan NEK11: 21
KIT (V559D, V654A)
  KINOMEscan KIT (V559D, V654A): 2.2
BRSK2
  KINOMEscan BRSK2: 91
TNK1
  KINOMEscan TNK1: 0.9
MAP3K2
  KINOMEscan MAP3K2: 0.05
DAPK2
  KINOMEscan DAPK2: 88
EGFR (S752-I759del)
  KINOMEscan EGFR (S752-I759del): 4.2
PIP5K2B
  KINOMEscan PIP5K2B: 27
ERK8
  KINOMEscan ERK8: 88
WEE1
  KINOMEscan WEE1: 69
MEK1
  KINOMEscan MEK1: 0.55
[1]
  KINOMEscan ABL1 (H396P)-phosphorylated: 0
[2]
  KINOMEscan EGFR (L747-T751del, Sins): 0.3
PKAC-beta
  KINOMEscan PKAC-beta: 66
EGFR (L858R)
  KINOMEscan EGFR (L858R): 0.1
CAMK2G
  KINOMEscan CAMK2G: 100
MEK4
  KINOMEscan MEK4: 48
EPHA3
  KINOMEscan EPHA3: 0.8
CSNK1G3
  KINOMEscan CSNK1G3: 84
EPHA2
  KINOMEscan EPHA2: 0.6
DAPK3
  KINOMEscan DAPK3: 63
BUB1
  KINOMEscan BUB1: 100
KIT (D816H)
  KINOMEscan KIT (D816H): 6
YES
  KINOMEscan YES: 0.05
RET (V804M)
  KINOMEscan RET (V804M): 7.6
AAK1
  KINOMEscan AAK1: 13
AURKB
  KINOMEscan AURKB: 26
MYLK
  KINOMEscan MYLK: 86
